Source: patent publication US6423734B1, “Method of preventing cancer” (The Procter & Gamble Company, priority 1999, dated 2002)
“And” between values parts separate entries of the source, which are not always exact repeats. Equal entries are not always repeated.

Tested on: C57BL/6J-Apc^Min mice
Assay: Chemopreventive activity in Apc^Min mouse model (intestinal tumor number)
Details: for Tumor # ±S.D.: avg. age 118 days
Protocol: In both studies,—Carbendazim was administered orally at 1000 mg/kg, 1500 mg/kg, and 2000 mg/kg on a twice weekly to end schedule. In order to provide a positive control for the Apc^Min mouse study, Sulindac was administered ad libitum in the drinking water at 85 mg/l. Gemcitabine at 80 mg/kg, i.p., served as the positive control in the MiaPaCa study.
Female C57BL/6J-Apc^Min mice were obtained from The Jackson Laboratory at 4-5 weeks of age. The following day (Day 1), drug treatment begins. The Min (Multiple intestinal neoplasia) mouse is a strain with a mutated murine Apc (adenomatous polyposis coli) gene, which leads to the development of multiple intestinal polyps. This development is time and diet dependent, with 100% of the mice which ingest a high fat diet forming adenomas beginning around 45 days of age. These mice develop in excess of 30 adenomas throughout the intestinal tract during their 120 day life span and are therefore an ideal model for the evaluation of potential chemopreventive agents.
The mean survival times of all groups were calculated, and results are expressed as mean survival of treated mice/mean survival of control mice (T/C)×100%. A T/C value of 150 means that the mice in the treated group lived 50% longer than those of the control group; this is sometimes referred to as the increase in life span, or ILS value.
Statistics were performned on the data using primarily the log rank p-value test.

Row | SMILES | Tumor # ±S.D. (1000 mg/kg p.o. 2× weekly to end, control 31.70 ± 18.49, 1000 mg/kg) | # of non-specific Death (1000 mg/kg p.o. 2× weekly to end, n 10) | # of non-specific Death (1500 mg/kg p.o. 2× weekly to end, n 10) | Tumor # ±S.D. (2000 mg/kg p.o. 2× weekly to end, control 31.70 ± 18.49, 2000 mg/kg) | # of non-specific Death (2000 mg/kg p.o. 2× weekly to end, n 9) | # of non-specific Death (0.85 mg/kg p.o. ad libitum/H20, n 9)
1 | COC(=O)Nc1nc2ccccc2[nH]1 [Carbendazim, 2-methoxycarbonylamino-benzimidazole] | 24.7 and 24.71 ± 7.8 | 3 | 2 | 19.1 and 19.17 ± 7.36 | 3 | 
2 | CC1=C(CC(=O)O)c2cc(F)ccc2/C1=C\c1ccc([S+](C)[O-])cc1 (stereo not drawn) [Sulindac, reference compound] |  |  |  |  |  | 0
